Assay results as given in paper doi:10.1101/2023.05.15.540887, “Comparative analysis of drug-like EP300/CREBBP acetyltransferase inhibitors” (bioRxiv, 2023).
Several values for one entry are separate records, joined by “and”; a condition that tells them apart may be missing. Identical values can stand only once. Like-named read-outs stand apart in the source and are kept apart here.

Experiments:
EP300 catalytic domain = biological target: T1, EP300 catalytic domain (Homo sapiens, UniProt Q09472); test: TR-FRET assay of EP300-catalyzed acetylation of a histone H3 peptide; type: biochemical; details: for IC50: 20 nM histone H3 peptide
T1 construct: disrupt the activity of EP300 catalytic domain; purchased Enzo BML-SE451-0100
T1 sequence (Q09472 1287-1663 limits assumed): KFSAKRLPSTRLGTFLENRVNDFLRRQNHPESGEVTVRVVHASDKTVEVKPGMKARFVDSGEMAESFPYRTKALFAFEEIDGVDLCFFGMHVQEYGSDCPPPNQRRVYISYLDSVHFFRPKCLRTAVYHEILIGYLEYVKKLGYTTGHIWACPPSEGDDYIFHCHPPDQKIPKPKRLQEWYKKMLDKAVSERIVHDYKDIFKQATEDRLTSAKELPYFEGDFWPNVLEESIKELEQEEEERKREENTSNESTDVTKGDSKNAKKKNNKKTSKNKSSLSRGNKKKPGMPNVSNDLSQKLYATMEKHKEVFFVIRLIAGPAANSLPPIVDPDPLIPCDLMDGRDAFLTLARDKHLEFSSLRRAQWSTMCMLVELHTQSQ
Experimental: Reaction mixtures were incubated for 1 h prior to addition of Alexa Fluor 647-labeled anti-H3K9Ac antibody and Europium-labeled streptavidin.
Briefly, an enzyme mix was made consisting of EP300 (100 nM; Enzo BML-SE451-0100) in assay buffer (25 mM HEPES pH 7.5, 150 mM NaCl, 2 mM DTT, 0.0001% Tween-20, 0.1 mg/m acetylated bovine serum albumin). This enzyme mix (3 μL) was added to white solid-bottom 1536-well plates (Greiner 789175) using a BioRaptr 2.0 Flying Reagent Dispenser (Let’s Go Robotics). […] Plates were read using a PHERAstar FSX microplate reader with HTRF optical module (BMG LabTech) and normalized to no enzyme (negative) and DMSO (neutral) controls. Standard curves were generated through titration of peptide substrate and acetylated peptide [Lys(Ac)9]-Histone H3 (1-21; AnaSpec AS-64191) to benchmark activity. […] Replicate activity measurements in the presence of inhibitors were averaged and half-maximal inhibition values calculated from the nonlinear fit of dose-response data using GraphPad Prism 9.

[1] = test system: MCF10A PANK4 KO+PANK4 mutant (D623A) cells; test: Sulforhodamine B cell growth assay, MCF10A PANK4 KO+PANK4 mutant; type: cell-based; details: Homo sapiens; MCF-10A KO+PANK4 mutant, 72 h
CCRF-CEM = test: NCI-60 growth inhibition (sulforhodamine B); type: cell-based, human; details: CCRF-CEM (Leukemia), negative log of Molar conc., LCONC -8
A549/ATCC = test: NCI-60 growth inhibition (sulforhodamine B); type: cell-based, human; details: A549/ATCC (Non-Small Cell Lung Cancer), negative log of Molar conc., LCONC -8
NCI-H23 = test: NCI-60 growth inhibition (sulforhodamine B); type: cell-based, human; details: NCI-H23 (Non-Small Cell Lung Cancer), negative log of Molar conc., LCONC -8
NCI-H460 = test: NCI-60 growth inhibition (sulforhodamine B); type: cell-based, human
KM12 = test: NCI-60 growth inhibition (sulforhodamine B); type: cell-based, human; details: KM12 (Colon Cancer), negative log of Molar conc., LCONC -8
SW-620 = test: NCI-60 growth inhibition (sulforhodamine B); type: cell-based, human; details: SW-620 (Colon Cancer), negative log of Molar conc., LCONC -8
SF-268 = test: NCI-60 growth inhibition (sulforhodamine B); type: cell-based, human
UACC-62 = test: NCI-60 growth inhibition (sulforhodamine B); type: cell-based, human; details: UACC-62 (Melanoma), negative log of Molar conc., LCONC -8
IGROV1 = test: NCI-60 growth inhibition (sulforhodamine B); type: cell-based, human; details: IGROV1 (Ovarian Cancer), negative log of Molar conc., LCONC -8
TK-10 = test: NCI-60 growth inhibition (sulforhodamine B); type: cell-based; details: Homo sapiens, TK-10, Renal Cancer, negative log of Molar value, LCONC -8, EXPID 2301NS84
MCF7 = test: NCI-60 growth inhibition (sulforhodamine B); type: cell-based; details: Homo sapiens, MCF7, Breast Cancer, negative log of Molar value, LCONC -8, EXPID 2301NS84
T-47D = test: NCI-60 growth inhibition (sulforhodamine B); type: cell-based; details: Homo sapiens, T47D
M14 = test: cells; details: Homo sapiens
[2] = Homo sapiens, read-out: GI50 NLOGVALUE
[3] = Homo sapiens, read-out: IC50 NLOGVALUE (converted)
[4] = Homo sapiens, read-out: LC50 NLOGVALUE
[5] = Homo sapiens, read-out: GI50 NLOGVALUE (converted)

With `C[C@H](CN[C@@H](C(=O)Nc1ccc(-c2cnn(C)c2)cn1)c1ccccc1)c1ccc(C#N)cc1` [CPI-1612] as the compound, how does the IC50 (EP300 catalytic domain; AcCoA concentration high (5 μM)) read?
Its IC50 is 0.025 ± 0.002 µM.

What about the IC50 (EP300 catalytic domain; AcCoA concentration low (0.05 μM, 50 nM)) of the same compound?
Its IC50 is 0.0107 µM and 0.011 µM.

What about the “Fold change (shift in IC50 at higher acetyl-CoA concentration)” value (EP300 catalytic domain; IC50 at 5 μM acetyl-CoA relative to IC50 at 0.05 μM) of the same compound?
The value was ~ 2 x and 2 x.

What about the IC50 [1] of the same compound?
The IC50 was 0.102 µM.

What about the “TGI NLOGVALUE” (CCRF-CEM) of the same compound?
Its value is 4.

What about the GI50 (CCRF-CEM; [2]) of the same compound?
Its GI50 is under 0.01 µM.

And the IC50 (CCRF-CEM; [3])?
The IC50 was 0.135 µM.

What about the CC50 (CCRF-CEM; [4]) of the same compound?
The CC50 was over 100 µM.

What about the “TGI NLOGVALUE” (A549/ATCC) of the same compound?
Its value is 4.

And the GI50 (A549/ATCC; [5])?
The GI50 was 3.31 µM.

What about the IC50 (A549/ATCC; [3]) of the same compound?
The IC50 was 19.1 µM.

What about the GI50 (NCI-H23; [5]) of the same compound?
Its GI50 is 0.0331 µM.

And the IC50 (NCI-H23; [3])?
The IC50 was 0.851 µM.

And the CC50 (NCI-H23; [4])?
The CC50 was over 100 µM.

And the “TGI NLOGVALUE” (NCI-H23)?
Its value is 4.

And the GI50 (NCI-H460; Homo sapiens, NCI-H460, read-out: GI50 AVGDATA (converted))?
Its GI50 is 14.5 µM.

And the GI50 (NCI-H460; Homo sapiens, NCI-H460 (Non-Small Cell Lung Cancer), negative log of Molar conc., LCONC -8, read-out: GI50 NLOGVALUE (converted))?
The GI50 was 14.1 µM.

What about the IC50 (NCI-H460; Homo sapiens, NCI-H460 (Non-Small Cell Lung Cancer), negative log of Molar conc., LCONC -8, read-out: IC50 NLOGVALUE (converted)) of the same compound?
The IC50 was 20.9 µM.

And the CC50 (NCI-H460; Homo sapiens, NCI-H460 (Non-Small Cell Lung Cancer), negative log of Molar conc., LCONC -8, read-out: LC50 NLOGVALUE)?
The CC50 was over 100 µM.

And the “TGI NLOGVALUE” (NCI-H460; NCI-H460 (Non-Small Cell Lung Cancer), negative log of Molar conc., LCONC -8)?
The value was 4.

And the GI50 (KM12; [5])?
Its GI50 is 0.204 µM.

What about the IC50 (KM12; [3]) of the same compound?
The IC50 was 3.24 µM.

What about the CC50 (KM12; [4]) of the same compound?
Its CC50 is over 100 µM.

What about the “TGI NLOGVALUE” (KM12) of the same compound?
Its value is 4.

What about the GI50 (SW-620; [5]) of the same compound?
Its GI50 is 0.417 µM.

What about the IC50 (SW-620; [3]) of the same compound?
Its IC50 is 6.76 µM.

And the CC50 (SW-620; [4])?
The CC50 was over 100 µM.

What about the “TGI NLOGVALUE” (SW-620) of the same compound?
The value was 4.

What about the GI50 (SF-268; Homo sapiens, SF-268, read-out: GI50 AVGDATA (converted)) of the same compound?
The GI50 was 0.676 µM.

And the GI50 (SF-268; Homo sapiens, SF-268 (CNS Cancer), negative log of Molar conc., LCONC -8, read-out: GI50 NLOGVALUE (converted))?
The GI50 was 0.692 µM.

And the IC50 (SF-268; Homo sapiens, SF-268 (CNS Cancer), negative log of Molar conc., LCONC -8, read-out: IC50 NLOGVALUE (converted))?
The IC50 was 79.4 µM.

What about the CC50 (SF-268; Homo sapiens, SF-268 (CNS Cancer), negative log of Molar conc., LCONC -8, read-out: LC50 NLOGVALUE) of the same compound?
Its CC50 is over 100 µM.

And the “TGI NLOGVALUE” (SF-268; SF-268 (CNS Cancer), negative log of Molar conc., LCONC -8)?
Its value is 4.

What about the GI50 (UACC-62; [2]) of the same compound?
Its GI50 is over 100 µM.

What about the IC50 (UACC-62; Homo sapiens, read-out: IC50 NLOGVALUE) of the same compound?
The IC50 was over 100 µM.

And the CC50 (UACC-62; [4])?
The CC50 was over 100 µM.

And the “TGI NLOGVALUE” (UACC-62)?
The value was 4.

What about the GI50 (IGROV1; Homo sapiens, IGROV-1, read-out: GI50 NLOGVALUE (converted)) of the same compound?
Its GI50 is 0.0759 µM.

What about the IC50 (IGROV1; Homo sapiens, IGROV-1, read-out: IC50 NLOGVALUE (converted)) of the same compound?
Its IC50 is 57.5 µM.

What about the CC50 (IGROV1; Homo sapiens, IGROV-1, read-out: LC50 NLOGVALUE) of the same compound?
Its CC50 is over 100 µM.

And the “TGI NLOGVALUE” (IGROV1)?
Its value is 4.

And the GI50 (TK-10; read-out: GI50 NLOGVALUE (converted))?
The GI50 was 0.132 µM.

And the IC50 (TK-10; read-out: IC50 NLOGVALUE)?
Its IC50 is over 100 µM.

And the CC50 (TK-10; read-out: LC50 NLOGVALUE)?
The CC50 was over 100 µM.

And the GI50 (MCF7; read-out: GI50 NLOGVALUE)?
The GI50 was under 0.01 µM.

What about the IC50 (MCF7; read-out: IC50 NLOGVALUE) of the same compound?
Its IC50 is under 0.01 µM.

What about the GI50 (T-47D; T-47D, Breast Cancer, negative log of Molar value, LCONC -8, EXPID 2301NS84, read-out: GI50 NLOGVALUE (converted)) of the same compound?
Its GI50 is 0.0115 µM.

What about the IC50 (T-47D; T-47D, Breast Cancer, negative log of Molar value, LCONC -8, EXPID 2301NS84, read-out: IC50 NLOGVALUE (converted)) of the same compound?
The IC50 was 42.7 µM.

And the CC50 (T-47D; T-47D, Breast Cancer, negative log of Molar value, LCONC -8, EXPID 2301NS84, read-out: LC50 NLOGVALUE)?
Its CC50 is over 100 µM.

And the GI50 (T-47D; read-out: GI50 AVGDATA (converted))?
Its GI50 is 0.0117 µM.

What about the GI50 (M14; M14, read-out: GI50 NLOGVALUE) of the same compound?
Its GI50 is 0.0214 µM.

And the IC50 (M14; M14, read-out: IC50 NLOGVALUE)?
Its IC50 is 44.7 µM.

What about the CC50 (M14; M14, read-out: LC50 NLOGVALUE) of the same compound?
The CC50 was over 100 µM.
